Source: US11458118B2, “Methods and pharmaceutical compositions for the treatment of diseases associated with reduced CFTR function” (INSERM (INSTITUT NATIONAL DE LA SANTÉ ET DE LA RECHERCHE …, priority 2017, dated 2022)
Entries after “also recorded” stand apart in the source; their conditions may differ.

What was measured:
[1] = tested on: F508del-CFTR; assay: Whole-cell patch-clamp of CFTR Cl- channel activity in CFBE41o-/F508del cells; type: cell-based, human; settings: for increase of Cl- currents in treated vs untreated F508del-CFTR cells: pA/pF values at +80 mV
Protocol: (§1) The CFBE41o−cells purchased from Professor D. C.
Whole-cell patch-clamp recordings were obtained with the patch clamp system Port-a-Patch® (Nanion Technologies GmbH, Germany) as previously described [74;75]. Untreated or AEBSF treated cells were incubated with the external solution (140 mM NaCl, 2 mM CaCl2, 1 mM MgCl2, 10 mM Hepes, 5 mM D-glucose monohydrate, pH 7.4, 298 mOsmol) before recording. The internal solution used was 50 mM CsCl, 10 mM NaCl, 60 mM Cs-Fluoride, 20 mM EGTA, 10 mM Hepes/CsOH, and 5 mM Mg-ATP (Mg salt); pH 7.2; 285 mOsmol. CFTR activation and CFTR inhibition was done using the CFTR-activator ([…] and […] both from Sigma) and the CFTR-inhibitor ([…], Sigma) solution respectively, that were added to the external solution. Voltage steps (100 ms) from a holding potential of −80 mV, from −80 mV to +80 mV (10 mV increments) were applied. Data were captured using the Patchmaster program (Nanion Technologies GmbH, Germany) and currents normalized by membrane capacitances to remove variability due to differences in the cell sizes. Results were presented as graphic representations of I/V relationship and as bar graphs after statistical analysis of the normalized values, at +80 mV.

[2] = tested on: F508del-CFTR; assay: Cell surface detection of CFTR in BHK cells expressing HA-tagged F508del-CFTR; type: cell-based, hamster; settings: for presence of F508del-CFTR within membranes: after treatment of cells expressing F508del-CFTR
Protocol: BHK cells stably expressing WT-CFTR or F508del-CFTR were graciously given by Dr. John W. Hanrahan (McGill University). A 3-Haemaglutinin (HA)-epitope tag was inserted in the fourth extracellular loop of CFTR in these cell lines. Cells were cultured in Dulbecco's modified Eagle medium (Lonza, Switzerland) supplemented with 10% fetal bovine serum. Cells were washed three times with cold 1×PBS (Eurobio, France) plus bovine serum albumine (BSA, 0.5%) and incubated 1 h at 4° C. with an anti-HA antibody (BioLegend, USA) diluted (1/250) in 1×PBS plus 0.5% BSA. Cells were washed three times with cold 1×PBS, scraped and centrifugated (300×g, 3 min, 4° C.). Cells pellets were suspended in RIPA buffer for 30 min on ice, centrifuged (16000×g, 15 min, 4° C.) and total protein concentration of supernatant was determined using Lowry's method, using BSA as a standard. Protein G magnetic beads (Thermo Fisher Scientific, USA) were equilibrated with cold RIPA buffer. Lysates were then incubated with the magnetic beads (100 μl of magnetic beads per mg of total protein) at 4° C. during for 2 h. Beads were then rinsed three times in cold RIPA buffer and proteins were eluted with 2× sample buffer containing 2-mercaptoethanol (20 min, 37° C.). […] Membrane was blocked with 5% (w/v) dried skimmed milk in PBS (0.1%) with Tween20, probed overnight at 4° C. with the anti-HA antibody (1/500) in 5% non-fat dried milk in PBST. Membranes were further washed and incubated 1 h at RT with HRP conjugated anti-mouse antibody (1/20000; Santa Cruz Biotechnology, USA). Blots were developed by enhanced chemiluminescence kit (ECL Plus, GE Healthcare, USA) and analyzed using Chemi-Smart 5100 ECL imaging system (Vilber Lourmat, Germany).

[3] = tested on: S1P-mediated cleavage of ATF6; settings: from references [69], [78]; cited from earlier work
[4] = tested on: BiP; assay: BiP expression by western blot in cells expressing F508del-CFTR (UPR reporter); type: cell-based, human; settings: 300 μM AEBSF, total cell lysates
Protocol: as §1
(§2) Untreated or AEBSF treated cells were rinsed twice with cold PBS. For total cell lysate preparation, cells were lysed in RIPA buffer (25 mM Tris-HCl pH 7.5, 150 mM NaCl, 1% Triton X-100, 1% Na-Deoxycholate, 0.1% SDS, 10 mM iodoacetamide, 100 μM PMSF) supplemented with fresh protease-inhibitor cocktail (Complete tablets—EDTA free, Roche, Basel, Switzerland) added extemporaneously at a final concentration of 40 μl/ml (30 min on ice). Lysates were centrifugated (15 min, 16000 g, 4° C.). For nuclear preparation, cells were washed twice with cold PBS, and lysed with buffer A (10 mM HEPES pH 7.9, 1.5 mM MgCl2, 10 mM KCl, 2 mM EDTA, 0.5 mM DTT, 0.20% NP40 and protease-inhibitor cocktail) during 15 min at 4° C. Lysates were then centrifuged (1,500×g, 2 min, 4° C.) and the supernatants (cytosolic fraction) were removed in a new tube. […] Protein concentrations were determined using Lowry's methodology with the bovine serum albumin used as a standard.
(§3) For each sample equal amount of total or nuclear proteins was loaded on a polyacrylamide gel and resolved by SDS-PAGE (10%). […] Blots were developed by enhanced chemiluminescence kit (ECL Plus, GE Healthcare) and analyzed using Chemi-Smart 5100 ECL imaging system (Vilber Lourmat). The relative intensity of each band was quantified by densitometry using BIO-1D software (Vilber Lourmat). […]

[5] = tested on: ATF6; assay: ATF6 expression and activation by western blot (total lysates, nuclear fractions) in cells expressing F508del-CFTR; type: cell-based, human; settings: 300 μM AEBSF
Protocol: as §1
Untreated or AEBSF treated cells were rinsed twice with cold PBS. For total cell lysate preparation, cells were lysed in RIPA buffer (25 mM Tris-HCl pH 7.5, 150 mM NaCl, 1% Triton X-100, 1% Na-Deoxycholate, 0.1% SDS, 10 mM iodoacetamide, 100 μM PMSF) supplemented with fresh protease-inhibitor cocktail (Complete tablets—EDTA free, Roche, Basel, Switzerland) added extemporaneously at a final concentration of 40 μl/ml (30 min on ice). Lysates were centrifugated (15 min, 16000 g, 4° C.). For nuclear preparation, cells were washed twice with cold PBS, and lysed with buffer A (10 mM HEPES pH 7.9, 1.5 mM MgCl2, 10 mM KCl, 2 mM EDTA, 0.5 mM DTT, 0.20% NP40 and protease-inhibitor cocktail) during 15 min at 4° C. Lysates were then centrifuged (1,500×g, 2 min, 4° C.) and the supernatants (cytosolic fraction) were removed in a new tube. The pellet was washed twice in buffer B (Buffer A without NP40) and lysed with buffer C (20 mM HEPES pH 7.9, 1.5 mM MgCl2, 450 mM KCl, 2 mM EDTA, 2 mM EGTA, 0.5 mM DTT, 25% Glycerol and protease-inhibitor cocktail) during 1 h vortexing 2200 rpm. Lysates were then centrifuged (14,000×g, 10 min, 4° C.) and supernatant (nuclear fraction) was removed in a new tube. Protein concentrations were determined using Lowry's methodology with the bovine serum albumin used as a standard.
For each sample equal amount of total or nuclear proteins was loaded on a polyacrylamide gel and resolved by SDS-PAGE (10%). Samples were then transferred onto a PVDF membrane (EMD Millipore, Billerica, Mass., United States). After blotting, membranes were blocked with 5% (w/v) non-fat dried skimmed milk in PBS-0.1% Tween20 (PBST). Blots were then probed overnight at 4° C. with the primary antibodies listed hereafter: Rabbit polyclonal anti-ATF6 antibody (#09-069, EMD Millipore), Rabbit polyclonal anti-S1P antibody (H-300) (#SC-20757, SantaCruz Biotechnology), Rabbit polyclonal anti-GRP78 antibody (H-129) (#SC-13968, SantaCruz Biotechnology). Membranes were further incubated 1 h at room temperature with the appropriate horseradish peroxidase (HRP) conjugated secondary antibody diluted in PBST (1/20,000): Goat anti-rabbit (#A0545, Servilab). Blots were developed by enhanced chemiluminescence kit (ECL Plus, GE Healthcare) and analyzed using Chemi-Smart 5100 ECL imaging system (Vilber Lourmat). The relative intensity of each band was quantified by densitometry using BIO-1D software (Vilber Lourmat). Each value was normalized by blue coomassie staining or the G3PDH signal obtained in the same lane on the same blot probed with mouse monoclonal antibody anti-G3PDH (#H86504M, Meridian Life Science®, Inc.) diluted in PBST (1/30,000).

[6] = tested on: S1P; assay: S1P expression by western blot in cells expressing F508del-CFTR; type: cell-based, human; settings: 300 μM AEBSF, total cell lysates
Protocol: as §1, §2, §3

[7] = tested on: cells expressing Wt-CFTR and F508del-CFTR; assay: Cell toxicity observed in treated cells; settings: in the used concentration (300 μM AEBSF; 10 μM PF-429242)
Protocol: The CFBE41o−cells purchased from Professor D. C. Gruenert (San Francisco, Calif., U.S.A.) were human bronchial epithelial cells endogenously expressing the F508del-CFTR obtained from a CF patient homozygous for the F508del mutation [51;52]. The cells used in experiments were the transduced CFBE41o−/WT also called CFBE41o−/corrected (CFBE41o−/corr) and CFBE41o−/F508del cells, and were cultured as previously described. These cells will be also called cells expressing Wt-CFTR and cells expressing F508del-CFTR in the manuscript. Cell culture media and supplements were purchased from Lonza (Basel, Switzerland) and CliniSciences (Nanterre, France). To inhibit ATF6 activation, cells were incubated with 300 μM of the serine protease inhibitor 4-(2-Aminoethyl) benzenesulfonyl fluoride hydrochloride (AEBSF) purchased from Servilab. In some experiments, ATF6 activation was blocked by the use of 10 μM PF-429242 (4-[(Diethylamino)methyl]-N-[2-(2-methoxyphenyl)ethyl]-N-(3R)-3-pyrrolidinylbenzamide, from Tocris).

[8] = tested on: cells expressing F508del-CFTR; assay: 2-DE and mass spectrometry of differentially expressed proteins after treatment; type: cell-based, human; settings: AEBSF treated vs untreated cell lysates, above 2 fold, MS identification
Protocol: 100 μg of total proteins from untreated or AEBSF treated cells were used for experiments. Each protein sample was first diluted in DeStreak Rehydration Solution (GE Healthcare, Chalfont St Giles, UK) which contains optimized concentrations of urea, thiourea, CHAPS, DeStreak Reagent and appropriate IPG buffer. Passive rehydration of Immobiline DryStrip gels (7 cm, pH 3-10 NL, GE Healthcare) with samples was performed during 8 hours. Once rehydration completed, Immobiline DryStrip gel are transferred in the Manifold on Ettan IPGphor 3 (GE Healthcare) for first dimension isoelectric focusing (IEF). IEF protocol used is divided in five steps: 1—Step 300 V, 200 Vhr; 2—Grad 1000 V, 300 Vhr; 3—Grad 5000 V, 4500 Vhr; 4—Step 5000V, 9000 Vhr; 5—Step 300V, 12-15 h. Second-dimension separation is performed immediately after IEF is completed. Immobiline DryStrip gels are equilibrated (15 min at room temperature) in two SDS equilibration buffers (6 M urea, 75 mM Tris-HCl pH=8.8, 30% Glycerol, 2% SDS, 0.0002% bromophenol blue+DTT or iodoacetamide) before SDS-PAGE. Electrophoresis was performed with lab-cast gels (1 mm, Bis-Tris 10%) in 1× Tris-Glycine-SDS buffer (BioRad, Hercules, Calif., USA) at 120 V for 2 h 30. […] Gel alignment, spot detection and quantification were done using the PDQuest software (PDQuest Basic-8.0.1, BioRad). […]

CCN(CC)Cc1ccc(C(=O)N(CCc2ccccc2OC)[C@@H]2CCNC2)cc1 [PF-429242, 4-[(Diethylamino)methyl]-N-[2-(2-methoxyphenyl)ethyl]-N-(3R)-3-pyrrolidinylbenzamide]
increase of Cl- currents in treated vs untreated F508del-CFTR cells ([1]; 10 μM PF-429242, 8 hours): +152% | mean cell Cl- currents (function of F508del-CFTR) ([1]; CFBE41o-/F508del cells, 10 μM PF-429242, 8 hours, at +80 mV, untreated 32.98±14.71): 82.67±22.26 pA/pF | presence of F508del-CFTR within membranes [2]: increase the presence of F508del-CFTR within membranes | inhibition of ATF6 cleavage upon ER stress [3]: efficiently blocks the S1P-mediated cleavage of ATF6 upon ER stress

Cl.NCCc1ccc(S(=O)(=O)F)cc1 [AEBSF, 4-(2-Aminoethyl) benzenesulfonyl fluoride hydrochloride]
increase of Cl- currents in treated vs untreated F508del-CFTR cells ([1]; 300 μM AEBSF, 8 hours): +153% | fold increase of the F508del-CFTR's Cl- function ([1]; 300 μM AEBSF, 8 hours, vs untreated cells): 2.5 fold | mean cell Cl- currents ([1]; CFBE41o-/F508del cells, 300 μM AEBSF, 8 hours, at +80 mV, untreated 32.98±14.71, Wt-CFTR 118.8±21.09): 83.42±11.51 pA/pF | BiP expression, treated vs untreated cells for each time point [4]: Significant decreases at the 4 and 8 hours time points | BiP expression over time in treated cells ([4]; over time): significant decrease of BiP expression was observed after 4 hours of treatment | ATF6 activation (cleaved form in nuclear fraction) compared to the zero time point ([5]; nuclear fractions): significant decreases at the 2 and 4 hours treatment | cleaved 50 kDa ATF6 in nuclear fraction, treated vs untreated cells for each time point ([5]; nuclear fractions): significant decreased expression of the 50 kDa form of ATF6, from 1 to 8 hours | full length ATF6 expression compared to the zero time point ([5]; total cell lysates): significant increased expression was observed after 4 and 8 hours of treatment | full length ATF6 expression, treated vs untreated cells for each time point ([5]; total cell lysates): significant decreases after 0.5, 1 and to 2 hours and a significant increase after 8 hours | S1P expression over time in treated cells ([6]; 0.5, 1, 2, 4 or 8 hours, CFBE41o-/F508del cells, hydrochloride): significance was only observed at the 2 hours time point; also recorded: no significant variation was observed over time except for the 2 hours time point | S1P expression, treated vs untreated cells for each time point ([6]; F508del-CFTR cells): no significant difference | mature form of CFTR (C band, 170 kDa) at the cell surface ([2]; BHK cells expressing HA-tagged F508del-CFTR, anti-HA pull-down and immunoblot): only observed after AEBSF treatment | presence of F508del-CFTR within membranes [2]: increase the presence of F508del-CFTR within membranes | cell toxicity [7]: No obvious cell toxicity was observed | differentially expressed proteins after treatment [8]: HNRNPH1 and HNRH3 were decreased and that PDIA3 (Grp58), HSP7C, GRP75 and HSP71 were increased | inhibition of ATF6 cleavage upon ER stress [3]: inhibit the proteolysis of ATF6
